Experimental data taken from patent US6372884B1, “Biologically active compounds and methods of constructing and using the same” (priority 1987, dated 2002).
Ends that are not written are not given here.

Tests used:
[1] = Size-exclusion chromatography of oxidized peptides (Sephadex G-10); type: physicochemical; details: reduced versus non-reduced peptides
[2] = Rate of loss of sulfhydryls on air oxidation (Ellman determination); type: physicochemical; details: 2 mg/ml in 0.1 M NaHCO3, 37° C., exposed to air, FIG. 23
[3] = tested on: C3H female mouse spleenocytes; test: Lymphocyte proliferation with or without concanavalin A; type: cell-based; details: for inhibition of con A induced lymphocyte proliferation: presence of con A, FIGS. 7B, 8A, 8B; for inhibition of spontaneous lymphocyte proliferation: absence of con A, FIG. 7A; for biologic activity compared with VL peptide: summary statement in the discussion
monoclonal antibody 9BG5 = test: Inhibition of binding of radioiodinated reovirus type 3 particles to 9BG5 coated wells; parameters: species or system mouse; details: for binding to neutralizing monoclonal antibody 9BG5, variant peptide compared with VL peptide: relative to VL peptide
Experimental: The wells of microtiter plates were coated with neutralizing anti-reovirus type 3 monoclonal antibody 9BG5 or irrelevant class matched monoclonal A11 by adsorption to staphylococcal protein A (SPA). SPA (sigma Chemical Co., St. Louis, Mo.) was diluted to 5 μg/ml in 0.1 M NaHCO3 pH 9.6 and 50 μl/well dispensed into 96 well polystyrene plates. Following overnight incubation at 4° C., the. wells were decanted, washed three times in PBS, and blocked with 2% BSA in PBS with 0.1% NaN3 for one hour at 37° C. The wells were decanted, washed three times in PBS and monoclonal antibody 9BG5 diluted to 10 μg/ml in 1% BSA in PBS with 0.1% NaN3 was added (50 μl/well) for 1-3 hours at 37° C. […] The wells were decanted and washed three times in PBS. Competitors were added at the concentrations noted (100 μl/well) diluted in 0.5% BSA in 5 mM phosphate buffer with 0.45% NaCl and preincubated for 45-60 minutes at 23° C. […] Following preincubation with inhibitors, radioiodinated reovirus type 3 particles diluted in 1% BSA in PBS with 0.1% NaN3 were added (5-10×10^5 CPM per well), and the incubation continued for 45 minutes. Wells were decanted, washed 8-10 times with PBS and the CPM bound determined. […] As shown in FIGS. 10A-C, 6,700 CPM were bound to 9BG5 coated wells and 500 CPM were bound to control (A11 ) coated wells in the absence of inhibitors. The mean ± standard deviation of binding inhibition (Determined as noted for FIG. 9) of replicate wells is shown. Control peptide B was used in this study. The competitor peptides in FIGS. 15A and 15B are those described herein. Competitor peptide VLA6 is identical to VL except that alanine is substituted for asparagine at position 6.

L cells = test: Inhibition of L cell DNA synthesis (tritiated thymidine); type: cell-based, murine; details: tritiated thymidine incorporation after 24 hours, FIGS. 3 and 4
Experimental: Reovirus type 3 inhibits host cell DNA synthesis upon receptor perturbation. This effect is not due to infection of cells as replication defective reovirus type 3 particles retain this property. L cells were cultured at 5 ×10^4 cells per well of 96 well microtiter plates in 100 μl media for 24 hours. Reovirus type 3 particles (A) were added and incubated for an additional 24 hours prior to the addition of tritiated thymidine. Purified monoclonal antibodies 87.92.6 or HO 22.1 (B) were added for 1 hour at 37° C., then the culture media removed and replaced with 100 μl fresh media for 24 hours, prior to the addition of tritiated thymidine. The cells were incubated for an additional 4-6 hours and counts per minute (CPM) incorporated were determined.
87.92.6 is effective only as a native antibody while monomeric Fab fragments have no effect. VL peptide was synthesized with an additional amino terminal cysteine residue (VLSH) to form a dimeric peptide. VLSH peptide was dimerized by stirring a 5 mg/ml solution in 0.1 M ammonium bicarbonate overnight at 23° C. exposed to air. The peptides were then lyophilized. Dimerization was confirmed by Ellman determination according to the procedure of Ellman, G. L. Arch. […] Tritiated thymidine was added for an additional 4-6 hours, and counts per minute (CPM) incorporated was determined. Per cent inhibition was determined by the formula: [formula]

[4] = tested on: reovirus type 3 receptor on R1.1 cells; test: Down-modulation of reovirus type 3 receptor, flow cytometry with 87.92.6; type: cell-based, murine; details: for level of expression of the reovirus type 3 receptor: 1 hour at 37° C., up to 500 μg/ml peptide, FIGS. 5A-D; for reovirus type 3 receptor expression (decrease in mean channel fluorescence): peptides 100 μg/ml, three experiments, FIG. 6
[5] = tested on: Thy 1.2 molecules on R1.1 cells; test: Expression of Thy 1.2 molecules, flow cytometry with HO 13.4; type: cell-based, murine; details: for expression of Thy 1.2 molecules: 1 hour at 37° C., up to 500 μg/ml peptide, FIGS. 5A-D
[6] = tested on: reovirus type 3 receptor on L cells; test: Inhibition of binding of radioiodinated reovirus particles to L cells; parameters: species or system murine; details: for binding to the reovirus type 3 receptor compared with VL peptide: summary statement in the discussion
[7] = tested on: neutralizing monoclonal antibody 9BG5; type: binding, mouse
reovirus type 1 [8] = tested on: reovirus type 1; parameters: species or system Balb/c mice; details: mouse, in vivo
reovirus type 3 [9] = tested on: reovirus type 3; parameters: species or system Balb/c mice; details: mouse, in vivo
reovirus type 1 [10] = tested on: reovirus type 1; parameters: species or system Balb/c mice; details: mouse, in vivo; remark: listed apart in the source
reovirus type 3 [11] = tested on: reovirus type 3; parameters: species or system Balb/c mice; details: mouse, in vivo; remark: listed apart in the source
reovirus type 1 [12] = test: Delayed type hypersensitivity (footpad swelling), reovirus type 1; type: in vivo, mice; details: footpad challenge with virus
Experimental: (§1) FIG. 17 illustrates data for mice immunized with the reovirus types noted by injection of 10^7 PFU subcutaneously, or with the peptides noted at a dose of 100 μg split into two injections subcutaneously; one week later, mice were challenged with virus or peptides in the footpads; footpad swelling was determined as indicated in the following description 48 hours after challenge; the mean +SEM for groups of mice is shown.
(§2) For the study of DTH response, groups of mice were inoculated with either synthetic peptide or live reovirus type 3 subcutaneously (s.c.) in two separate sites on the dorsal flanks of the animal (over each hind limb); 50 μg of a synthetic peptide or 10^7 viral particles/0.2 ml were given in separate injections of 0.1 ml vol. Six days later, animals were challenged in the left footpad with 3×10^7 viral particles suspended in saline containing 2% gelatin (30 μl). Footpad swelling was recorded 24 hr later in a blind fashion (Greene, M. I. and Weiner, H. L., J. Immunol. 125:283-287, 1980). Four animals per group were studied, and the magnitude of the response was determined by comparing the challenged left footpad to the untreated right footpad.

reovirus type 3 [13] = test: Delayed type hypersensitivity (footpad swelling), reovirus type 3; type: in vivo, mice
Experimental: as §1, §2

[14] = tested on: reovirus type 3 receptor (Reo3R); test: Flow cytometry: inhibition of 87.92.6 binding to cells; parameters: species or system murine; details: for inhibition of binding of 87.92.6 to murine L cells / inhibition of binding of 87.92.6 to R1.1 thymoma cells: FIG. 29; for inhibition of binding of 87.92.6 to R1.1 thymoma cells: R1.1 cells
Experimental: The ability of peptides to inhibit antibody binding to cells was determined by preincubation of the cells with varying amounts of inhibitor (in 100 μl dH2O) for between 30 minutes and 1 hour at 23° C. Cells (either L cells or R1.1 cells) were washed in 1% BSA/PBS/0.1% NaN3, and resuspended at 10^7/ml. 100 μl of cells were then added in 1% BSA/PBS/0.1% NaN3, and the incubation continued for 20-30 minutes. Antibodies (5 or 10 μl were added for an additional 20 minutes at 23° C. Ice cold 1% BSA/PBS/0.1% NaN3, was added, the cells centrifuged and washed prior to counterstaining with a 1:100 dilution of FITC goat anti-mouse Ig (Fisher Scientific) in 1% BSA/PBS/0.1% NaN3. The cells were washed twice and fluorescence intensity determined. Inhibition of binding was calculated as noted above with mean channel number utilized in place of CPM.
To assess the affinity of the cyclic peptides for the reovirus type 3 receptor (Reo3R), they were utilized in a series of assays to inhibit binding of 87.92.6 or control antibodies to specific receptors. […] The inhibition by VLC9C16 peptide was specific as binding of isotype matched monoclonal H013.4 to Thy2 molecules was not inhibited by VLC9C16 peptide (FIG. 30). Thus, VLC9C16 peptide is a specific Reo3R ligand with enhanced affinity compared with its linear analog.

9B.G5 = test: Competitive RIA: inhibition of 9B.G5 - 87.92.6 interaction; type: binding; details: liquid phase assay, FIGS. 25 and 26

## KPGKTNKLLCYSGSTCQ (cysteine pairing not given here) [VLC10C16 peptide]
[1]
  molecular form following oxidation by size-exclusion chromatography: migrated more rapidly
[2]
  rate of loss of sulfhydryls: more slowly

## KPGKTNKLLIYSASTLQ [VLA13]
[3]
  inhibition of con A induced lymphocyte proliferation: increased effect
Monoclonal antibody 9BG5
  binding to neutralizing monoclonal antibody 9BG5, variant peptide compared with VL peptide: increased binding

## Cys-Lys-Pro-Gly-Lys-Thr-Asn-Lys-Leu-Leu-Ile-Tyr-Ser-Gly-Ser-Thr-Leu-Gln (CKPGKTNKLLIYSGSTLQ; also: dimeric) [VLSH peptide]
L cells
  inhibition of DNA synthesis by L cells: marked inhibition
[3]
  inhibition of spontaneous lymphocyte proliferation: markedly inhibited
[4]
  level of expression of the reovirus type 3 receptor: specifically down-modulates
  reovirus type 3 receptor expression (decrease in mean channel fluorescence): specifically down-modulated
[5]
  expression of Thy 1.2 molecules: does not effect
[5]; peptides 100 μg/ml, FIG. 6
  expression of Thy 1.2 molecules (decrease in mean channel fluorescence): without effecting

## KPGKTNKLLIYSGSALQ [VLA15]
[3]
  inhibition of con A induced lymphocyte proliferation: attenuated
  biologic activity compared with VL peptide: decreased biological activity
[6]
  binding to the reovirus type 3 receptor compared with VL peptide: decreased binding to the reovirus type 3 receptor
Monoclonal antibody 9BG5
  binding to neutralizing monoclonal antibody 9BG5, variant peptide compared with VL peptide: increased binding to neutralizing monoclonal antibody

## KPGKTNKLLIYAGSTLQ [VLA12]
[3]
  inhibition of con A induced lymphocyte proliferation: attenuated
  biologic activity compared with VL peptide: reduced biologic activity
[6]
  binding to the reovirus type 3 receptor compared with VL peptide: reduced binding to the reovirus type 3 receptor
Monoclonal antibody 9BG5
  binding to neutralizing monoclonal antibody 9BG5, variant peptide compared with VL peptide: reduced binding to neutralizing monoclonal antibody

## KSGNASTPQQLQNLTLDIRQR [control peptide, control peptide, unrelated to this system, reference compound]
[7]
  specific binding of 9BG5 to peptide coated wells: No significant binding
Reovirus type 1 [8]
  binding of immune serum to type 1 virus coated plates: bound poorly
Reovirus type 3 [9]
  neutralization of L-cell lysis by reovirus type 3 by immune serum: no effect
Reovirus type 1 [10]
  neutralization of L-cell lysis by reovirus type 1 by immune serum: no effect
Reovirus type 3 [11]
  binding of immune serum to type 3 virus coated plates: bound poorly

## KPGKTNKLLIYSGSTLQ [VL peptide, amino acids 39-55 of the light chain variable region of 87.92.6]
L cells
  inhibition of DNA synthesis by L cells: no effect
[3]
  inhibition of spontaneous lymphocyte proliferation: no significant effect
[6]; FIGS. 11A and 11B
  inhibition of binding of variant K to L cells: inhibits binding
[6]; FIGS. 11A-D
  inhibition of binding of reovirus type 3 to L cells: inhibits binding
[6]; reovirus type 1 utilizes a distinct receptor
  inhibition of binding of reovirus type 1 to cells: not inhibited
[7]
  specific binding of 9BG5 to peptide coated wells: small amount of binding
Reovirus type 1 [12]
  DTH response to reovirus type 1 after immunization with peptide: did not demonstrate significant DTH responses
[4]
  reovirus type 3 receptor expression (decrease in mean channel fluorescence): no effect
Reovirus type 3 [13]; footpad challenge with virus, FIGS. 15A and 15B
  DTH response to reovirus type 3 after immunization with peptide: significant DTH responses
Reovirus type 3 [13]; priming with type 3 virus, challenge with peptide
  DTH to the peptide in animals primed with type 3 virus: significant DTH
[14]
  inhibition of binding of 87.92.6 to murine L cells: less effective competitor
  inhibition of binding of 87.92.6 to R1.1 thymoma cells: ineffectual
Monoclonal antibody 9BG5; FIGS. 10A-C
  inhibition of binding of reovirus type 3 particles to 9BG5: inhibits binding

## KPGKTNKCLIYSGSTCQ (cysteine pairing not given here) [VLC8C16 peptide]
[1]
  molecular form following oxidation by size-exclusion chromatography: remained chiefly as monomers
[2]
  rate of loss of sulfhydryls: most rapid loss of sulfhydryls

## QGLEWIGRIDPANG [VH peptide, amino acids 43-56 of the heavy chain variable region of 87.92.6 including CDR II]
9B.G5
  inhibition of 9B.G5 - 87.92.6 interaction: able to inhibit
[7]
  specific binding of 9BG5 to peptide coated wells: only achieved background levels
[4]
  level of expression of the reovirus type 3 receptor: does not effect
[14]
  interaction with the reovirus type 3 receptor (Reo3R): does not significantly interact
  inhibition of binding of 87.92.6 to murine L cells: no effect
  inhibition of binding of 87.92.6 to R1.1 thymoma cells: no effect
[5]
  expression of Thy 1.2 molecules: does not effect
